Results: ChEMBL document CHEMBL4823306, “Synthesis of D-π-A type benzothiazole-pyridinium salt composite and its application as photo-degradation agent for amyloid fibrils” (Bioorg Med Chem Lett, 2021)
Activity calls are given as the source filed them. The rule behind the calls is not given here.

What was measured:
[1] = system: HeLa; experiment: Phototoxicity in human HeLa cells assessed as reduction in cell viability irradiated with UVA-LED measured after 60 mins; assay type: cell-based; conditions: 1 h
[2] = molecular target: Amyloid-beta precursor protein (Homo sapiens) (UniProt P05067); experiment: Photo-degradation of Amyloid beta (1 to 42) (unknown origin) assessed as disruption of Co2 induced aggregation at 66.7 uM irradiated with UVA-LED for 1 hr by immunoblotting analysis
[3] = molecular target: Amyloid-beta precursor protein (Homo sapiens) (UniProt P05067); experiment: Photo-degradation of Amyloid beta (1 to 42) (unknown origin) assessed as disruption of Co2 induced aggregation at 66.7 uM irradiated with UVA-LED measured after 5 mins by immunoblotting analysis
[4] = system: HeLa; experiment: Dark toxicity in human HeLa cells assessed as reduction in cell viability; assay type: cell-based

Sequence of Amyloid-beta precursor protein (Homo sapiens) (P05067 whole entry): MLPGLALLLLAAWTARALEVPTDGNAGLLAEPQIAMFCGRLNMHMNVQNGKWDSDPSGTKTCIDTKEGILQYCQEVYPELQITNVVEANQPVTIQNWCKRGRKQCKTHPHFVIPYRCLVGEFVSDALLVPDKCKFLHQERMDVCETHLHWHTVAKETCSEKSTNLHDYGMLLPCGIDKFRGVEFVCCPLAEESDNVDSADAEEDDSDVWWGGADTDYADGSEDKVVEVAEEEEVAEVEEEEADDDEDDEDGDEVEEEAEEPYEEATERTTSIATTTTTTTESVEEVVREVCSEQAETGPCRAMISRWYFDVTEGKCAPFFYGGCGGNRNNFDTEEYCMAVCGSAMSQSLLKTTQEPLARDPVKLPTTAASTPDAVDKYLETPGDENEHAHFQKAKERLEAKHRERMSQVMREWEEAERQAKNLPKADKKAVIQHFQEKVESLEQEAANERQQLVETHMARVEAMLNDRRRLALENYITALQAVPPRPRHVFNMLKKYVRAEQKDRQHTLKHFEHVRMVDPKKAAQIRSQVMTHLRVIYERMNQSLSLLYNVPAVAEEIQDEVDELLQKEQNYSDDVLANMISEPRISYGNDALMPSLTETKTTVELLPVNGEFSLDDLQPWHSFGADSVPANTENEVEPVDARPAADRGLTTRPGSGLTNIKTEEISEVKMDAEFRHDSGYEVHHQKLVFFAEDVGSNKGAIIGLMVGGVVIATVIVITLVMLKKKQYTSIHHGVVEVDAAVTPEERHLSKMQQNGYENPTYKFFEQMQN

inhibition [2]: Active | inhibition [3]: Active
SMILES: CC[n+]1ccc(-c2ccc(-c3nc4ccccc4s3)cc2)cc1.[Br-]
Activity [1]: Toxic | Activity [4]: Non-Toxic
